Source: EP0114002B1, “Benzothiopyrano(4,3,2,-cd)indazoles, their pharmaceutical compositions and methods for their production” (WARNER-LAMBERT COMPANY, priority 1983, dated 1984)
pIC50: −log10 of the molar value. Where two headings read alike, the source gives them in different places.

Tests used:
HCT-8 cells = test: in vitro proliferating human colon adenocarcinoma (HCA) cell screen; format: cell-based
Method: One test protocol is the in vitro proliferating human colon adenocarcinoma (HCA) cell screen. In this test, HCT-8 cells (HCA cell line received from Yale University) are trypsinized using trypsin-EDTA. A single cell suspension is achieved by passing the cells through a 26 gauge needle with a 20 cc syringe. A cell suspension is prepared using RPMI 1640 + 10% FCS + 50) g/ml gentamicin sulfate with a cell concentration of approximately 30,000 cells/ml. The cell suspension is dispensed in Linbro 24-well plates; 1 ml/well. The plates are incubated for approximately 48 hours at 37°C in a 5% C02 atmosphere. At this time test compounds are added in the appropriate concentration. Five µl of the 200 µg/ml stock solution is added to each well in primary test. Ten µl of the appropirate dilution is added to each well for a titration test. The plates are re-incubated an additional 60 to 65 hours at 37°C in a 5% C02 atmosphere. The cells are lysed using a mix of cationic surfactant, glacial acetic acid, and sodium chloride. Two ml of the lysed cell suspension from each well is added to 8 ml of diluent. The number of nuclei is determined using a Coulter counter (ZBI model), and a percent growth for each drug concentration is calculated. From this, an ID50 molar concentration of a compound (that results in 50% inhibition of growth) is determined.

[1] = test system: lymphocytic leukemia P388; test: in vivo lymphocytic leukemia P388 test; set-up: species or system mice; conditions: Mus musculus, P388, ip, 120 h, read-out: P388 in vivo T/C × 100; for response vs control in vivo at 3.12 mg/kg: Dose 3.12 mg/kg intraperitoneally once daily for five days; for response vs control in vivo at 6.25 mg/kg: Dose 6.25 mg/kg intraperitoneally once daily for five days; for response vs control in vivo at 12.5 mg/kg: Dose 12.50 mg/kg intraperitoneally once daily for five days; for response vs control in vivo at 50 mg/kg: Dose 50.00 mg/kg intraperitoneally once daily for five days; for response vs control in vivo at 25 mg/kg: Dose 25.00 mg/kg intraperitoneally once daily for five days
Method: Another test protocol is the in vivo lymphocytic leukemia P388 test. The animals used are either male or female CD2F, mice. There are six or seven animals per test group. The tumor transplant is by intraperitoneal injection of dilute ascitic fluid containing cells of lymphocytic leukemia P388. The test compounds are administered intraperitoneally once daily for five consecutive days at various doses following tumor inoculation. The animals are weighed and survivors are recorded on a regular basis for 30 days. A compound is designated "toxic" if, at a given dose, all animals died prior to four days after the first injection of drug. A ratio of survival time for treated (T)/control (C) animals is calculated. A criterion for efficacy is a ratio T/C times 100 greater than or equal to 125. See Cancer Chemotherapy Reports, Part 3, 3; 1 (1972) for a comprehensive discussion of the protocol.

[2] = test system: Aerobacter aerogenes 0126; test: in vitro antibacterial/antifungal (ABF) agar-disk diffusion test; format: cell-based; conditions: Klebsiella aerogenes, read-out: ABF Zone Diameter (cont. in mg/ml) A. Aero-genes; for zone of inhibition at 100 µg/mL: 0.1 mg/ml; for zone of inhibition at 1000 µg/mL: 1 mg/ml; for zone of inhibition at 3000 µg/mL: 3 mg/ml; for zone of inhibition at 500 µg/mL: 0.5 mg/ml
Method: (§1) Still another test protocol is the in vitro antibacterial/antifungal (ABF) test. Compounds are tested for antimicrobial activity in an agar-disk diffusion assay, a standard microbiological technique for testing antibiotics'. After incubation of each culture with a test compound, a zone of inhibition is determined. The zone diameter (mm) of active compounds ranges from a minimum of 13.5 mm to as high as 60 mm, with a greater diameter reflecting higher activity. For convenience, values are reported for two gram-negative bacteria (Aerobacter aerogenes 0126 and Escherichia coli 04863), two gram-positive bacteria (Bacillus subtilis 04555 and Streptococcus faecalis 05045 utilizing AM-09 medium), and one mycelial fungus (Penicillium avellaneum M2988).

Escherichia coli 04863 = test: as above; format: cell-based; conditions: read-out: ABF Zone Diameter (cont. in mg/ml) E. Coli; for zone of inhibition at 500 µg/mL: 0.5 mg/ml; for zone of inhibition at 3000 µg/mL: 3 mg/ml
Method: as §1

[3] = test system: Streptococcus faecalis 05045; test: as above; format: cell-based; conditions: Enterococcus faecalis, AM-09 medium, read-out: ABF Zone Diameter (cont. in mg/ml) S. Fae-calis; for zone of inhibition at 500 µg/mL: 0.5 mg/ml; for zone of inhibition at 1000 µg/mL: 1 mg/ml; for zone of inhibition at 3000 µg/mL: 3 mg/ml
Method: as §1

[4] = test system: Penicillium avellaneum M2988; test: as above; format: cell-based; conditions: Hamigera avellanea, read-out: ABF Zone Diameter (cont. in mg/ml) P. Avell-aneum; for zone of inhibition at 3000 µg/mL: 3 mg/ml
Method: as §1

Bacillus subtilis 04555 = test: as above; format: cell-based; conditions: read-out: ABF Zone Diameter (cont. in mg/ml) B. Sub-tilis; for zone of inhibition at 500 µg/mL: 0.5 mg/ml; for zone of inhibition at 1000 µg/mL: 1 mg/ml; for zone of inhibition at 3000 µg/mL: 3 mg/ml
Method: as §1

L1210 cells = test: L1210 murine leukemia cell growth inhibition in vitro; format: cell-based; conditions: Mus musculus, 72 h
Method: Another test protocol uses L1210 cells, a murine leukemia cell line, grown in RPMI 1640 supplemented with 5% fetal bovine serum and gentamicin ([…]). Drug dilutions are prepared in the appropriate solvent and 20 µl of each dilution are added to 24-well Linbro tissue culture plates, followed by the addition of 2.0 ml of cell suspension containing 3 x 10^4 cells per ml. Solvent and medium controls are included in each test. After incubation at 37°C forthree days in 5% C02, the contents of each well are removed and the cells counted in a ZBI Coulter counter. Percent growth are calculated relative to the controls and the levels of drug activity are expressed as ID50 in moles per liter.

[5] = Table 1, 60 to 65 hours with compound, 50% inhibition of growth, read-out: HCA—3 in vitro ID50
[6] = Table 1, three days incubation, 50% inhibition of growth, read-out: L1210 in vitro ID50
[7] = Table 2, 60 to 65 hours with compound, read-out: HCA—3 in vitro IC50
[8] = Table 2, three days incubation, read-out: L1210 in vitro IC50

Structure (SMILES)	pIC50 (HCT-8 cells; [5])	pIC50 (L1210 cells; [6])	response vs control in vivo at 3.12 mg/kg [1] [%]	response vs control in vivo at 6.25 mg/kg [1] [%]	response vs control in vivo at 12.5 mg/kg [1] [%]	zone of inhibition at 100 µg/mL [2] [mm]	zone of inhibition at 500 µg/mL (Escherichia coli 04863) [mm]	zone of inhibition at 500 µg/mL [3] [mm]	zone of inhibition at 3000 µg/mL [4] [mm]	zone of inhibition at 500 µg/mL (Bacillus subtilis 04555) [mm]	zone of inhibition at 3000 µg/mL (Escherichia coli 04863) [mm]	zone of inhibition at 1000 µg/mL [3] [mm]	zone of inhibition at 3000 µg/mL [2] [mm]	zone of inhibition at 3000 µg/mL (Bacillus subtilis 04555) [mm]	zone of inhibition at 3000 µg/mL [3] [mm]	other results
CCN(CC)CCn1nc2c3c(c(NCCNCCO)ccc31)Sc1ccccc1-2 [CH2CH2N(C2H5)2 / NHCH2CH2NHCH2CH2OH, 2-[[2-[[2-[2-(Diethylamino)ethyl]-2H[1]benzothiopyrano[4,3,2-cd]indazol-5-yl]amino]ethyl]amino]ethanol]	6.70	7.09	209	219	280	15	26	16	0	18	–	–	–	–	–	–
O=C1OCCN1CCNc1ccc2c3c(nn2CCNCCO)-c2ccccc2Sc13 [CH2CH2NHCH0H2OH /]	5.85	6.24	–	–	–	–	–	–	0	–	15	17	–	–	–	zone of inhibition at 1000 µg/mL [2]: 14 mm; zone of inhibition at 1000 µg/mL (Bacillus subtilis 04555): 16 mm
CCN(CC)CCn1nc2c3c(c(NCCN4CCOC4=O)ccc31)Sc1ccccc1-2 [CH2CH2N(C2H5)2 /]	5.74	6.02	–	–	–	–	–	14	0	–	0	–	0	13	–	response vs control in vivo at 47.45 mg/kg ([1]; Dose 47.45 mg/kg intraperitoneally once daily for five days): 141%; response vs control in vivo at 50 mg/kg [1]: 140%; response vs control in vivo at 63.28 mg/kg ([1]; Dose 63.28 mg/kg intraperitoneally once daily for five days): 165%; response vs control in vivo at 84.38 mg/kg ([1]; Dose 84.38 mg/kg intraperitoneally once daily for five days): 193%; response vs control in vivo at 100 mg/kg ([1]; Dose 100.00 mg/kg intraperitoneally once daily for five days): 218%
Nc1ccc2c3c(nn2CCNCCO)-c2ccccc2Sc13 [CH2CH2NHCH2CH2OH / NH2]	6.24	6.77	135	143	159	–	17	–	15	18	–	20	–	–	–	response vs control in vivo at 25 mg/kg [1]: 194%; zone of inhibition at 500 µg/mL [2]: 16 mm
CN(C)CCn1nc2c3c(c([N+](=O)[O-])ccc31)Sc1ccccc1-2 [CH2CH2N(CH3)2 / NO2, N,N dimethyl-5-nitro-2H[1]benzothiopyrano[4,3,2-cd]indazole-2-ethanamine]	7.01	7.10	–	–	158	–	–	–	–	–	–	–	–	15	15	zone of inhibition at 1000 µg/mL [2]: 15 mm; zone of inhibition at 100 µg/mL (Escherichia coli 04863; 0.1 mg/ml): 14 mm; zone of inhibition at 100 µg/mL ([4]; 0.1 mg/ml): 15 mm
CCN(CC)CCn1nc2c3c(c(NCCNCCO)ccc31)Sc1c(O)ccc(O)c1-2 [2-[2-(Diethylamino)ethyl]-5-[[2-[(2-hydroxyethyl)amino]ethyl]amino]-2H[1]benzothiopyrano[4,3,2-cdlindazole-7,10-diol]	–	–	–	123	118	–	–	15	0	–	0	–	14	0	–	pIC50 (HCT-8 cells; [7]): < 5.82; response vs control in vivo at 25 mg/kg [1]: 121%; response vs control in vivo at 50 mg/kg [1]: 138%; pIC50 (L1210 cells; [8]): < 5.82
CCN(CC)CCn1nc2c3c(c(N)ccc31)Sc1c(O)ccc(O)c1-2 [CH2CH2N(C2H5)2 / NH2 / 7,10-(OH)2, 5-amino-2-[2-(diethylamino)ethyl]-2H[1]-benzothiopyrano[4;3,2-cd]indazole-7,10-diol]	–	–	–	–	–	–	–	–	0	–	0	–	0	0	19	pIC50 (HCT-8 cells; [7]): < 5.66; pIC50 (L1210 cells; [8]): < 5.66

Continued by rising pIC50 (HCT-8 cells; [5]), values first:

pIC50 (HCT-8 cells; [5])	pIC50 (L1210 cells; [6])	Structure (SMILES)	response vs control in vivo at 3.12 mg/kg [1] [%]	response vs control in vivo at 6.25 mg/kg [1] [%]	response vs control in vivo at 12.5 mg/kg [1] [%]	zone of inhibition at 100 µg/mL [2] [mm]	zone of inhibition at 500 µg/mL (Escherichia coli 04863) [mm]	zone of inhibition at 500 µg/mL [3] [mm]	zone of inhibition at 3000 µg/mL [4] [mm]	zone of inhibition at 500 µg/mL (Bacillus subtilis 04555) [mm]	zone of inhibition at 3000 µg/mL (Escherichia coli 04863) [mm]	zone of inhibition at 1000 µg/mL [3] [mm]	zone of inhibition at 3000 µg/mL [2] [mm]	zone of inhibition at 3000 µg/mL (Bacillus subtilis 04555) [mm]	zone of inhibition at 3000 µg/mL [3] [mm]	other results
6.49	6.96	NCCn1nc2c3c(c(N)ccc31)Sc1ccccc1-2 [CH2CH2NH2 / NH2, 5-amino-2H[1]benzothiopyrano[4,3,2]-cd]indazole-2-ethanamine]	125	131	160	17	19	–	0	–	–	15	–	–	–	zone of inhibition at 1000 µg/mL (Bacillus subtilis 04555): 18 mm
6.55	7.10	CN(C)CCn1nc2c3c(c(N)ccc31)Sc1ccccc1-2 [CH2CH2N(CH2)2 / NH2]	–	126	160	14	16	–	–	15	–	20	–	–	–	zone of inhibition at 500 µg/mL ([4]; 0.5 mg/ml): 17 mm
7.06	7.62	NCCn1nc2c3c(c(NCCNCCO)ccc31)Sc1ccccc1-2 [CH2CH2NH2 / NHCH2NHCH2CH2OH, 2-[[2-[[2-(2-aminoethyl)-2H[1]benzothiopyrano[4,3,2-cd]indazol-5-yl]amino]ethyl]amino]ethanol]	–	–	–	–	–	–	0	15	0	–	–	–	0	zone of inhibition at 500 µg/mL [2]: 15 mm
